The record followed here is ChEMBL document CHEMBL3399992, “Identification of anti-HIV agents with a novel benzo[4,5]isothiazolo[2,3-a]pyrimidine scaffold” (Bioorg Med Chem, 2015).

Series [1] deals with Human immunodeficiency virus. The experiment in a line: Antiviral activity against HIV 3B assessed as inhibition of infection of NCK45-beta-Gal cells after 48 hrs. It counts as functional, organism-based. The settings on record: Human immunodeficiency virus 1, 3B.
Series [2] is described as follows: Cytotoxicity against human NCK45 cells at 10 uM. It counts as cell-based. The settings on record: nck45, 10 µM.
In series [3] the test system is Human immunodeficiency virus. The experiment in a line: Antiviral activity against HIV 3B assessed as prevention of early stage infection of NCK45-beta-Gal cells up to 48 hrs. It counts as functional, organism-based.

The source made the active and inactive calls. No cut-off for these calls is given here.

Take `Oc1cccc(-c2ccc3c(c2)SN2CCCN=C32)c1`: in series [1], the EC50 is 1470 nM. Further, in series [2], the Activity entry is reported as “Non-toxic”.

`Oc1ccc(-c2ccc3c(c2)SN2CCCN=C32)cc1`: the EC50 in series [1] is 1280 nM. The Activity entry in series [2] is “Non-toxic”.

Regarding `COc1ccc(-c2ccc3c(c2)SN2CCCN=C32)cc1`, the EC50 in series [1] was found to be 90 nM. Moreover, the Activity entry in series [2] is given as “Toxic”.

`c1cn(-c2ccc3c(c2)SN2CCCN=C32)nn1`: the EC50 in series [1] came out at 420 nM. For the same compound, in series [2], the Activity result is reported as “Non-toxic”.

Regarding `FC(F)(F)c1ccc2c(c1)SN1CCCN=C21`, the EC50 in series [1] was 1280 nM. The Activity entry in series [2] is “Non-toxic”.

As for `COc1ccc2c(c1)SN1CCCN=C21`, the EC50 in series [1] turned out to be 580 nM. The Activity result in series [2] is listed as “Non-toxic”.

Turning to `c1cnn(-c2ccc3c(c2)SN2CCCN=C32)c1`, the EC50 in series [1] was 410 nM. The Activity result in series [2] is reported as “Non-toxic”.

In the case of `c1ccc(-c2ccc3c(c2)SN2CCCN=C32)nc1`, in series [1], the EC50 came to 340 nM. Besides, the Activity result in series [2] was “Non-toxic”.

As to `c1cc(-c2ccc3c(c2)SN2CCCN=C32)ccn1`, the EC50 in series [1] was determined as 560 nM. Besides, the Activity result in series [2] was “Non-toxic”.

Regarding `c1ccc(-c2ccc3c(c2)SN2CCCN=C32)cc1`, in series [1], the EC50 was 300 nM. Moreover, the Activity result in series [2] is recorded as “Non-toxic”.

Turning to `c1ccc2c(c1)SN1CCCN=C21`, the inhibition result in series [3] was “Active”. For the same compound, in series [1], the EC50 was 290 nM. Moreover, in series [2], the Activity result is given as “Non-toxic”.

With `O=[N+]([O-])c1cccc(-c2ccc3c(c2)SN2CCCN=C32)c1`, the EC50 in series [1] was determined as 120 nM. For the same compound, the Activity entry in series [2] is “Non-toxic”.

Consider `COC(=O)c1ccc(-c2ccc3c(c2)SN2CCCN=C32)cc1`, for which the EC50 in series [1] was found to be 160 nM. Also, in series [2], the Activity result is listed as “Non-toxic”.

Turning to `FC(F)(F)c1ccc2c(c1)C1=NCCCN1S2`, in series [1], the 50% effective concentration (EC50) was found to be 1780 nM. In addition, in series [2], the Activity result is recorded as “Non-toxic”.

On to `CC(=O)Nc1ccc2c(c1)SN1CCCN=C21`, for which the EC50 in series [1] was > 10000 nM. For the same compound, the Activity result in series [2] is “Non-toxic”.

As to `O=[N+]([O-])c1ccc(-c2ccc3c(c2)SN2CCCN=C32)cc1`, the EC50 in series [1] amounted to 80 nM. The Activity entry in series [2] is “Non-toxic”.

`O=[N+]([O-])c1ccc2c(c1)SN1CCCN=C21`: the EC50 in series [1] was 1790 nM. In addition, the Activity entry in series [2] is “Non-toxic”.

For `Cc1ccc2c(c1)C1=NCCCN1S2`, the EC50 in series [1] was 850 nM. For the same compound, the Activity result in series [2] is “Non-toxic”.

Take `Brc1ccc2c(c1)SN1CCCN=C21`: the EC50 in series [1] came out at 220 nM. In addition, the Activity entry in series [2] was “Non-toxic”.

Consider `c1ccc(-c2ccc3c(c2)C2=NCCCN2S3)cc1`, for which, in series [1], the EC50 came to 560 nM. The Activity result in series [2] is “Non-toxic”.

For the compound `COc1cccc(-c2ccc3c(c2)SN2CCCN=C32)c1`, the EC50 in series [1] is 100 nM. Further, in series [2], the Activity result is “Non-toxic”.

In the case of `c1cc(-c2ccc3c(c2)SN2CCCN=C32)cs1`, the EC50 in series [1] was determined as 80 nM. Besides, in series [2], the Activity entry is “Non-toxic”.

`c1cncc(-c2ccc3c(c2)SN2CCCN=C32)c1`: the EC50 in series [1] is 560 nM. Moreover, the Activity entry in series [2] was “Non-toxic”.

Consider `Brc1ccc2c(c1)C1=NCCCN1S2`, for which, in series [1], the 50% effective concentration (EC50) is 1010 nM. The Activity entry in series [2] was “Non-toxic”.

`COC(=O)c1cccc(-c2ccc3c(c2)SN2CCCN=C32)c1`: in series [3], the inhibition result was “Active”. The EC50 in series [1] was determined as 50 nM. For the same compound, the Activity result in series [2] is listed as “Non-toxic”.

On to `Brc1cccc2c1SN1CCCN=C21`, for which the EC50 in series [1] was > 10000 nM. Moreover, the Activity result in series [2] is on record as “Non-toxic”.

Turning to `c1cc2c(cc1-c1ccc3c(c1)SN1CCCN=C31)OCO2`, the EC50 in series [1] is 160 nM. Also, in series [2], the Activity entry is reported as “Non-toxic”.

On to `c1ccc2cc(-c3ccc4c(c3)SN3CCCN=C43)ccc2c1`, for which the EC50 in series [1] stood at 120 nM. Also, the Activity result in series [2] is on record as “Non-toxic”.

As to `N=C1Sc2ccccc2C2=NCCCN12`, the inhibition result in series [3] is “Active”. Moreover, the 50% effective concentration (EC50) in series [1] was 300 nM.

As for `c1coc(-c2ccc3c(c2)SN2CCCN=C32)c1`, the inhibition result in series [3] is “Active”. The EC50 in series [1] amounted to 50 nM. Besides, the Activity entry in series [2] was “Non-toxic”.

Turning to `c1ccc2c3c(ccc2c1)C1=NCCCN1S3`, in series [1], the EC50 was > 1000 nM. In addition, the Activity entry in series [2] is on record as “Toxic”.

Take `COc1ccc2c(c1)C1=NCCCN1S2`: the EC50 in series [1] is 2110 nM. Further, the Activity result in series [2] is given as “Non-toxic”.

The EC50 is the concentration giving half of the maximal effect.
